Assay results published in patent US5569668A (priority 1995, dated 1996).
Converted amounts (≈) assume the structure as drawn. Read-outs that look alike come from different tables or passages of the source.

Experiments:
Format in all cases: cell-based
[1] = system: Staphylococcus aureus ATCC29213; test: MIC of nematophin and its derivatives on Staphylococcus aureus ATCC29213
S. aureus 0012 = test: microbe, parasite or virus in culture; settings: Staphylococcus aureus, 0012, 24 h; read-out: Minimum Inhibitory Concentration (MIC)
S. aureus 0017 = test: microbe, parasite or virus in culture; settings: Staphylococcus aureus, 0017, 24 h; read-out: Minimum Inhibitory Concentration (MIC)
[2] = system: antibiotic resistant Staphylococcus; settings: conclusion from Table 1 MICs
Bacillus subtilis = test: MIC of nematophin on candidate microbial pathogens (Bacillus subtilis); settings: 24 h, 35° C., Table 1, read-out: Minimum Inhibitory Concentration (MIC)
[3] = system: Escherichia coli ATCC25922; test: MIC of nematophin on candidate microbial pathogens (Escherichia coli ATCC25922); settings: 24 h, 35° C., Table 1, read-out: Minimum Inhibitory Concentration (MIC)
Phytophthora infestans = test: microbe, parasite or virus in culture; settings: in Secale cereale, 96 h, read-out: Minimum Inhibitory Concentration (MIC)
Botrytis cinerea = test: MIC of nematophin on candidate microbial pathogens (Botrytis cinerea); settings: 48 h, 2 d, 24° C., Table 1, read-out: Minimum Inhibitory Concentration (MIC)
[4] = Table 2, similar bioassays as for nematophin, read-out: Minimum Inhibitory Concentration (MIC) of the derivatives of nematophin
[5] = 24 h, 35° C., Table 1, read-out: Minimum Inhibitory Concentration (MIC)

CCC(C)C(=O)C(=O)NCCc1c[nH]c2ccc(C)cc12 (stereo not shown) [5-MeIN]
MIC [1, 4]: 3 µg/mL

CC(=O)C(=O)NCCc1c[nH]c2ccccc12 [PAMIDE, 3-indoleethyl(2'-oxo)propanamide]
MIC [1, 4]: 100 µg/mL

CC(C)C(=O)C(=O)NCCc1c[nH]c2ccccc12 [MAMIDE]
MIC [1, 4]: 3 µg/mL

CCC(C)C(=O)C(=O)NCCc1c[nH]c2ccc(OC)cc12 (stereo not shown) [5-MeOIN]
MIC [1, 4]: 3 µg/mL

CCC(=O)C(=O)NCCc1c[nH]c2ccccc12 [BAMIDE, 3-indoleethyl(2'-oxo)butanamide]
MIC [1, 4]: 100 µg/mL

CCC(C)C(=O)C(=O)OCCc1c[nH]c2ccccc12 (stereo not shown) [OIN, 3-indoleethyl(3'-methyl-2'-oxo)pentanoate]
MIC [1, 4]: 25 µg/mL

CCC(C)C(=O)C(=O)NCCc1c[nH]c2ccccc12 (racemic) [SID, 3-indoleethyl(3'-methyl-2'-oxo)pentanamide]
MIC (S. aureus 0012): 1.5 µg/mL (≈ 5.51 µM) | MIC [1, 5]: 1.5 µg/mL | MIC (S. aureus 0017): 1.5 µg/mL (≈ 5.51 µM) | antibiotic properties, in particular against antibiotic resistant Staphylococcus [2]: potent properties | MIC (Bacillus subtilis): 12 µg/mL | MIC [3]: > 100 µg/mL | MIC (Phytophthora infestans): 2.5 µg/mL (≈ 9.18 µM) | MIC (Botrytis cinerea): 12 µg/mL

CCC(C)C(=O)C(=O)NCCc1c[nH]c2ccccc12 (single isomer, unassigned) [NID, 3-indoleethyl 3-methyl-2-oxo-pentanamide]
MIC (S. aureus 0012): 0.7 µg/mL (≈ 2.57 µM) | MIC [1, 5]: 0.7 µg/mL | MIC (S. aureus 0017): 0.7 µg/mL (≈ 2.57 µM) | antibiotic properties, in particular against antibiotic resistant Staphylococcus [2]: potent properties | MIC (Bacillus subtilis): 12 µg/mL | MIC [3]: > 100 µg/mL | MIC (Botrytis cinerea): 12 µg/mL

CCC(C)C(=O)C(=O)NCCc1c[nH]c2cc(F)ccc12 (stereo not shown) [6-FIN]
MIC [1, 4]: 0.7 µg/mL
